Source: PMC8944662 (Proceedings of the National Academy of Sciences of the …, 2022)

Target: NfnL (isolated large subunit of NADH-dependent ferredoxin-NADP+ oxidoreductase I) (Pyrococcus furiosus, UniProt Q8U195)
Experiment: intrinsic Trp/Tyr fluorescence quenching titration, Morrison fit
Assay type: binding

Chain of NfnL (isolated large subunit of NADH-dependent ferredoxin-NADP+ oxidoreductase I) (Q8U195 whole entry): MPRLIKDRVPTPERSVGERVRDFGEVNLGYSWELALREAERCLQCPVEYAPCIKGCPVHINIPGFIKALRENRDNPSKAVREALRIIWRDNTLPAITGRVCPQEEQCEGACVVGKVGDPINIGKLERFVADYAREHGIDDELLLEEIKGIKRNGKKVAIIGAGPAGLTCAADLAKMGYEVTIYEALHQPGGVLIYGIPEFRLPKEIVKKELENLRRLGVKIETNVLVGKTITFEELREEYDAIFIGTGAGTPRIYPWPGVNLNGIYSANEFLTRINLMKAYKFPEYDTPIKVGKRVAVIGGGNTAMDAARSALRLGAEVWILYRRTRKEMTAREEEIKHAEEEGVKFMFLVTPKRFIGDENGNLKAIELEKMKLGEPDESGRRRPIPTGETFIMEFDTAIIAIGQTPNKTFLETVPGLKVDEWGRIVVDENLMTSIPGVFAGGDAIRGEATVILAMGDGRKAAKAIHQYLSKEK

Row | Kd | Compound
1 | 3 ± 0.4 µM | NC(=O)C1=CN([C@@H]2O[C@H](COP(=O)(O)OP(=O)(O)OC[C@H]3O[C@@H](n4cnc5c(N)ncnc54)[C@H](OP(=O)(O)O)[C@@H]3O)[C@@H](O)[C@H]2O)C=CC1 [NADPH]
2 | 3 ± 0.4 µM | NC(=O)c1ccc[n+]([C@@H]2O[C@H](COP(=O)(O)OP(=O)(O)OC[C@H]3O[C@@H](n4cnc5c(N)ncnc54)[C@H](OP(=O)(O)O)[C@@H]3O)[C@@H](O)[C@H]2O)c1 [NADP^+]
